Results as given in patent publication US6638529B2, “Amide-based cationic lipids” (Genta Incorporated, priority 1995, dated 2003).

Key:
C8161 cells [1] = experiment: FITC-oligonucleotide uptake assay (nuclear fluorescence score); assay type: cell-based, human; design: key: 0: No nuclear fluorescence; 1: up to 20% fluorescent nuclei; 2: up to 40% fluorescent nuclei; 3: up to 60% fluorescent nuclei; 4: up to 80% fluorescent nuclei; 5: up to 100% fluorescent nuclei; conditions: lipid:oligomer 9:1 or 6:1 by weight, 4-6 h
COS-7 cells [2] = experiment: as above; assay type: cell-based, African green monkey; design: key: 0: No nuclear fluorescence; 1: up to 20% fluorescent nuclei; 2: up to 40% fluorescent nuclei; 3: up to 60% fluorescent nuclei; 4: up to 80% fluorescent nuclei; 5: up to 100% fluorescent nuclei; conditions: COS7, lipid:oligomer 9:1 or 6:1 by weight, 4-6 h
RD cells [3] = experiment: as above; assay type: cell-based, human; design: key: 0: No nuclear fluorescence; 1: up to 20% fluorescent nuclei; 2: up to 40% fluorescent nuclei; 3: up to 60% fluorescent nuclei; 4: up to 80% fluorescent nuclei; 5: up to 100% fluorescent nuclei; conditions: lipid:oligomer 9:1 or 6:1 by weight, 4-6 h
SNB-19 cells [4] = experiment: as above; assay type: cell-based, human; design: key: 0: No nuclear fluorescence; 1: up to 20% fluorescent nuclei; 2: up to 40% fluorescent nuclei; 3: up to 60% fluorescent nuclei; 4: up to 80% fluorescent nuclei; 5: up to 100% fluorescent nuclei; conditions: SNB19, lipid:oligomer 9:1 or 6:1 by weight, 4-6 h
COS-7 cells [5] = experiment: Transient transfection of CAT plasmid pG1035 with cationic lipids, CAT activity in lysate; assay type: cell-based, African green monkey; conditions: for Mean (transient transfection efficiency; CAT activity normalized to total protein): CAT plasmid pG1035 2 μg/mL, lipid 18 μg/mL (9 to 1 lipid to DNA), triplicate; for REL (transient transfection efficiency relative to best lipid in the cell line): CAT plasmid pG1035, 9 to 1 lipid to DNA
Procedure: (§1) Cell lines were plated at 1.5×10^5 cells/well in a 12 well plate format on the day before tranfection. […] This small quantity of ethanol was confirmed to have no adverse effect on any of the cell lines. […] Cell lysates were prepared by rinsing twice in PBS and then were treated with 0.5 mL of 1× Reporter Lysis Buffer (Promega, Madison, Wis.). The lysed cells were pipetted into 1.5 mL tubes and frozen in CO2/EtOH once and thawed. The crude lysate was then clarified by microcentrifugation at 14,000 rpm for 10 minutes to pellet cell debris. The clear supernatant was recovered and assayed directly or stored at -20° C. for assay later. The cell lysates were then assayed for CAT activity and the total protein concentration was determined as described below in Example 7. The CAT activity was normalized to total protein and plotted as shown. This assay was performed generally as follows. First, the following reaction mixture was prepared for each sample: […] Louis, Mo.), 4 mL ^14C-chloramphenicol, 50 nCi/mL (Dupont, Boston, Mass.), and 5 mL mg/mL n-butyryl coenzyme A (Pharmacia, Piscataway, N.J.). […] The original stock CAT was at 7000 Units/mL. […] Approximately […] of reaction mixture was then added to each sample tube, which was then typically incubated for approximately 1 hour in a 37° C. oven. The reaction was terminated by adding […] pristane:mixed xylenes (2:1) (Sigma, St. Louis, Mo.) to each tube. The tubes were then vortexed for 2 minutes and spun for 5 minutes. Approximately […] of the upper phase was transferred to a scintillation vial with 5 mL Scintiverse (Fisher, Pittsburgh, Pa.). The sample was then counted in a scintillation counter (Packard). The plasmid pG1035 was used for transient transfections of COS-7 (ATCC # CRL-1651), SNB-19, C8161 and RD (ATCC # CCL-136) cells. pG1035 consists of a modified CAT (choramphenicol acetyl transferase) gene (named […]) inserted into the eukaryotic vector pRc/CMV (Invitrogen, San Diego, Calif.). […] created by inserting an artificial intron into the wild type CAT gene sequence in a plasmid named pG1036 (also based on pRc/CMV) using the polymerase chain reaction. […] Concentration curve standards were prepared using 6 μL of […] BSA stock solutions and 300 mL of the Coomassie reagent. The assay samples were allowed to sit for approximately 30 minutes before reading the optical absorbance at 570 nm in a microplate reader (Molecular Probes). The cells were assayed for CAT protein as described above.

SNB-19 cells [6] = experiment: as above; assay type: cell-based, human; conditions: for Mean (transient transfection efficiency; CAT activity normalized to total protein): CAT plasmid pG1035 2 μg/mL, lipid 18 μg/mL (9 to 1 lipid to DNA), triplicate; for REL (transient transfection efficiency relative to best lipid in the cell line): CAT plasmid pG1035, 9 to 1 lipid to DNA
Procedure: as §1

RD cells [7] = experiment: as above; assay type: cell-based, human; conditions: for Mean (transient transfection efficiency; CAT activity normalized to total protein): CAT plasmid pG1035 2 μg/mL, lipid 18 μg/mL (9 to 1 lipid to DNA), triplicate; for REL (transient transfection efficiency relative to best lipid in the cell line): CAT plasmid pG1035, 9 to 1 lipid to DNA
Procedure: as §1

C8161 cells [8] = experiment: as above; assay type: cell-based, human; conditions: for Mean (transient transfection efficiency; CAT activity normalized to total protein): CAT plasmid pG1035 2 μg/mL, lipid 18 μg/mL (9 to 1 lipid to DNA), triplicate; for REL (transient transfection efficiency relative to best lipid in the cell line): CAT plasmid pG1035, 9 to 1 lipid to DNA
Procedure: as §1

[9] = FITC oligomer 3498-PS (phosphorothioate) 0.25 micromolar
[10] = FITC oligomer 3498 Chimera 0.25 micromolar
[11] = FITC oligomer 3793-2 alternating (methylphosphonate/diester, 2'-O-methyl) 0.25 micromolar

Structure (SMILES) | Nuclear delivery of oligonucleotide (uptake score) (C8161 cells [1]; [9]) | Nuclear delivery of oligonucleotide (uptake score) (C8161 cells [1]; [10]) | Nuclear delivery of oligonucleotide (uptake score) (C8161 cells [1]; [11]) | Nuclear delivery of oligonucleotide (uptake score) (COS-7 cells [2]; [9]) | Nuclear delivery of oligonucleotide (uptake score) (COS-7 cells [2]; [10]) | Nuclear delivery of oligonucleotide (uptake score) (COS-7 cells [2]; [11]) | Nuclear delivery of oligonucleotide (uptake score) (RD cells [3]; [9]) | Nuclear delivery of oligonucleotide (uptake score) (RD cells [3]; [10]) | Nuclear delivery of oligonucleotide (uptake score) (RD cells [3]; [11]) | Nuclear delivery of oligonucleotide (uptake score) (SNB-19 cells [4]; [9]) | Nuclear delivery of oligonucleotide (uptake score) (SNB-19 cells [4]; [10]) | Nuclear delivery of oligonucleotide (uptake score) (SNB-19 cells [4]; [11]) | Mean (transient transfection efficiency; CAT activity normalized to total protein) (COS-7 cells [5]) | REL (transient transfection efficiency relative to best lipid in the cell line) (COS-7 cells [5]) | Mean (transient transfection efficiency; CAT activity normalized to total protein) (SNB-19 cells [6]) | REL (transient transfection efficiency relative to best lipid in the cell line) (SNB-19 cells [6]) | Mean (transient transfection efficiency; CAT activity normalized to total protein) (RD cells [7]) | REL (transient transfection efficiency relative to best lipid in the cell line) (RD cells [7]) | Mean (transient transfection efficiency; CAT activity normalized to total protein) (C8161 cells [8]) | REL (transient transfection efficiency relative to best lipid in the cell line) (C8161 cells [8])
CCCCCCCCCCCCCCCCCC(CCCCCCCCCCCCCCCCC)NC(=O)CNC(=O)CNC(=O)[C@H](CCCNCCCN)NCCCN.O=C(O)C(F)(F)F.O=C(O)C(F)(F)F.O=C(O)C(F)(F)F.O=C(O)C(F)(F)F [Compound 1-10, N^2,N^5-Bis(3-aminopropyl)-L-ornithylglycyl-N-(1-heptadecyloctadecyl)glycinamide, Tetrahydrotrifluoroacetate] | 5 (up to 100% fluorescent nuclei) | 3 (up to 60% fluorescent nuclei) | 0 | 4 (up to 80% fluorescent nuclei) | 3 (up to 60% fluorescent nuclei) | 0 | 5 (up to 100% fluorescent nuclei) | 4 (up to 80% fluorescent nuclei) | 0 | 4 (up to 80% fluorescent nuclei) | 4 (up to 80% fluorescent nuclei) | 0 | 148040 | 0.87 | 166179 | 0.88 | 124232 | 0.7 | 159578 | 0.8
CCCCCCCCCCCCCCCCCCN(CCCCCCCCCCCCCCCCCC)C(=O)CC[C@H](NC(=O)[C@H](CCCNCCCN)NCCCN)C(=O)O.Cl.Cl.Cl.Cl [Compound 2-5, N^2-[N^2,N^5-Bis(3-aminopropyl)-L-ornithyl]-N,N-dioctadecyl-L-glutamine, tetrahydrochloride] | 3 (up to 60% fluorescent nuclei) | 4 (up to 80% fluorescent nuclei) | 3 (up to 60% fluorescent nuclei) | 2 (up to 40% fluorescent nuclei) | 2 (up to 40% fluorescent nuclei) | 1 (up to 20% fluorescent nuclei) | 3 (up to 60% fluorescent nuclei) | 4 (up to 80% fluorescent nuclei) | 4 (up to 80% fluorescent nuclei) | 3 (up to 60% fluorescent nuclei) | 3 (up to 60% fluorescent nuclei) | 3 (up to 60% fluorescent nuclei) | 55598 | 0.33 | 103280 | 0.55 | 73921 | 0.41 | 137710 | 0.69
